In assay [1] the target is Transitional endoplasmic reticulum ATPase (Homo sapiens, UniProt P55072, C522A). As to the kind of experiment: Luminescence counterscreen assay for p97 inhibitors: dose response biochemical high throughput screening assay to identify inhibitors of the C522A mutant p97 ATPase: synthesized compounds. [Related pubchem assays: 1481, 1517, 1551 ].
The target of assay [2] is Transitional endoplasmic reticulum ATPase (Homo sapiens, UniProt P55072). As to the kind of experiment: Luminescence dose response biochemical high throughput screening assay for inhibitors of the p97 ATPase: synthesized compounds. [Related pubchem assays: 1481, 1517 ].
Sequence of Transitional endoplasmic reticulum ATPase (Homo sapiens, UniProt P55072) (P55072 whole entry): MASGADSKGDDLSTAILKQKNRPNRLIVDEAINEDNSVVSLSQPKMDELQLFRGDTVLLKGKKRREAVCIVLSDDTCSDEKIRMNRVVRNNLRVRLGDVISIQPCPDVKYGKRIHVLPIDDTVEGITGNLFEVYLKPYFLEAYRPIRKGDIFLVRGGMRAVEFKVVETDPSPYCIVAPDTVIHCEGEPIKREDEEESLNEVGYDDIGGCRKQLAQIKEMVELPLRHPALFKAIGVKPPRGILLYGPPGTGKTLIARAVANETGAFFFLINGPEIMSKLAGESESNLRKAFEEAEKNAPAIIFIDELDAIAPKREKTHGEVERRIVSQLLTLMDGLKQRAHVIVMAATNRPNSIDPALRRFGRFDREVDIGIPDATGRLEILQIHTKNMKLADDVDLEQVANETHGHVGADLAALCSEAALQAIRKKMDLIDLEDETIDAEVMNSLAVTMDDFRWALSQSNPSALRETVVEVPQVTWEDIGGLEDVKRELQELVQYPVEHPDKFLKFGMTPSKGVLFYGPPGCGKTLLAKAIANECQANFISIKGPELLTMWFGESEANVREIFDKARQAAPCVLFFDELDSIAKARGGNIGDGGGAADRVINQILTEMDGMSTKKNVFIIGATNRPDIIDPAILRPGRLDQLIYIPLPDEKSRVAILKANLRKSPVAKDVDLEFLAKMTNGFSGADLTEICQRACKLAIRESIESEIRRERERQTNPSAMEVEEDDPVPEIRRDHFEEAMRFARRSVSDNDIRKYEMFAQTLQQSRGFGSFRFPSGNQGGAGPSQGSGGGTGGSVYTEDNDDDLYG

Sequence of Transitional endoplasmic reticulum ATPase (Homo sapiens, UniProt P55072, C522A) (P55072 2-806 C522A limits assumed): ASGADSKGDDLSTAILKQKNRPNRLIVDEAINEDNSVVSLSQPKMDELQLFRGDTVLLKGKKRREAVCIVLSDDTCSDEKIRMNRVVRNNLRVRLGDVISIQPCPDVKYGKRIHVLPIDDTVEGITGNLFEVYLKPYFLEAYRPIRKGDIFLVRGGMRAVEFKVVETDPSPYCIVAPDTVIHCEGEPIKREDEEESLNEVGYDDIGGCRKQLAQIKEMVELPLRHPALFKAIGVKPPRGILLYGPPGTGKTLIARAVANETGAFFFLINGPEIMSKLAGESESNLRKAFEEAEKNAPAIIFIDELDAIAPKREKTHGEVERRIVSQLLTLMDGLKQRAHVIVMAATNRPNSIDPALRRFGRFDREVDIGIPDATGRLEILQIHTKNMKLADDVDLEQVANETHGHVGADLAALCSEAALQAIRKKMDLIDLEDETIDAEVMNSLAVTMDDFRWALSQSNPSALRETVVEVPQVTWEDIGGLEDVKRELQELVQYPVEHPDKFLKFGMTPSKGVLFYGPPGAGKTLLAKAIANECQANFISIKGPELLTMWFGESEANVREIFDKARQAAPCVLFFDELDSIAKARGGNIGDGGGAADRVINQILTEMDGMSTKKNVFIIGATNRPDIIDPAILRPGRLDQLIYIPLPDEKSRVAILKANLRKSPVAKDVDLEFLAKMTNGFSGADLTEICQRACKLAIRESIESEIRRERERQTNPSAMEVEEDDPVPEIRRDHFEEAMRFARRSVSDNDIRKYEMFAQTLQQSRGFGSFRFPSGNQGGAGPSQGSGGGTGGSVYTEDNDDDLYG

Regarding `CCOC(=O)/C(C#N)=C/c1ccc(C#N)cc1`, the IC50 in assay [1] and in assay [2] was > 50 µM (not active) in each case.

Source of the values: ChEMBL document CHEMBL1201862, “PubChem BioAssay data set” (2004).
